Columns and labels:
Conditions in all cases: binder
CAMKK2 = CAMKK2 (Homo sapiens, UniProt Q96RR4)
CDC42BPG = CDC42BPG (Homo sapiens, UniProt Q6DT37)
CDK16 = CDK16 (Homo sapiens, UniProt Q00536)
LYN = LYN (Homo sapiens, UniProt P07948)
MAP2K6 = MAP2K6 (Homo sapiens, UniProt P52564)
MAP3K5 = MAP3K5 (Homo sapiens, UniProt Q99683)
MAPK11 = MAPK11 (Homo sapiens, UniProt Q15759)
MAPK3 = MAPK3 (Homo sapiens, UniProt P27361)
MAPK9 = MAPK9 (Homo sapiens, UniProt P45984)
MERTK = MERTK (Homo sapiens, UniProt Q12866)
MYLK = MYLK (Homo sapiens, UniProt Q15746)
MYLK2 = MYLK2 (Homo sapiens, UniProt Q9H1R3)
MYLK4 = biological target: T1, MYLK4 (Homo sapiens, UniProt Q86YV6)
T1 sequence (Q86YV6 1-388): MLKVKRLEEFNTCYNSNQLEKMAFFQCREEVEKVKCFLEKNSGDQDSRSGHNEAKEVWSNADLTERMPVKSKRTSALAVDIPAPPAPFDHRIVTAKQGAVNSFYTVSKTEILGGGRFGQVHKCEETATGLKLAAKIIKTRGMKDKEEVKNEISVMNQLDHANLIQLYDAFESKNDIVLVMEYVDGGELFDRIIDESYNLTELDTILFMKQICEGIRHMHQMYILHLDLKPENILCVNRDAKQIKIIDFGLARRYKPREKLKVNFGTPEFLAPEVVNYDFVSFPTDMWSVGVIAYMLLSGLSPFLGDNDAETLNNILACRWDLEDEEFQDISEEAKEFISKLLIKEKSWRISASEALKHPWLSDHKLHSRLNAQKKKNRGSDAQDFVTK

NEK2 = NEK2 (Homo sapiens, UniProt P51955)
PKN2 = PKN2 (Homo sapiens, UniProt Q16513)
PRKAA2 = PRKAA2 (Homo sapiens, UniProt P54646)
RPS6KA3 = RPS6KA3 (Homo sapiens, UniProt P51812)
SLK = SLK (Homo sapiens, UniProt Q9H2G2)
Chain of SLK (Q9H2G2 whole entry): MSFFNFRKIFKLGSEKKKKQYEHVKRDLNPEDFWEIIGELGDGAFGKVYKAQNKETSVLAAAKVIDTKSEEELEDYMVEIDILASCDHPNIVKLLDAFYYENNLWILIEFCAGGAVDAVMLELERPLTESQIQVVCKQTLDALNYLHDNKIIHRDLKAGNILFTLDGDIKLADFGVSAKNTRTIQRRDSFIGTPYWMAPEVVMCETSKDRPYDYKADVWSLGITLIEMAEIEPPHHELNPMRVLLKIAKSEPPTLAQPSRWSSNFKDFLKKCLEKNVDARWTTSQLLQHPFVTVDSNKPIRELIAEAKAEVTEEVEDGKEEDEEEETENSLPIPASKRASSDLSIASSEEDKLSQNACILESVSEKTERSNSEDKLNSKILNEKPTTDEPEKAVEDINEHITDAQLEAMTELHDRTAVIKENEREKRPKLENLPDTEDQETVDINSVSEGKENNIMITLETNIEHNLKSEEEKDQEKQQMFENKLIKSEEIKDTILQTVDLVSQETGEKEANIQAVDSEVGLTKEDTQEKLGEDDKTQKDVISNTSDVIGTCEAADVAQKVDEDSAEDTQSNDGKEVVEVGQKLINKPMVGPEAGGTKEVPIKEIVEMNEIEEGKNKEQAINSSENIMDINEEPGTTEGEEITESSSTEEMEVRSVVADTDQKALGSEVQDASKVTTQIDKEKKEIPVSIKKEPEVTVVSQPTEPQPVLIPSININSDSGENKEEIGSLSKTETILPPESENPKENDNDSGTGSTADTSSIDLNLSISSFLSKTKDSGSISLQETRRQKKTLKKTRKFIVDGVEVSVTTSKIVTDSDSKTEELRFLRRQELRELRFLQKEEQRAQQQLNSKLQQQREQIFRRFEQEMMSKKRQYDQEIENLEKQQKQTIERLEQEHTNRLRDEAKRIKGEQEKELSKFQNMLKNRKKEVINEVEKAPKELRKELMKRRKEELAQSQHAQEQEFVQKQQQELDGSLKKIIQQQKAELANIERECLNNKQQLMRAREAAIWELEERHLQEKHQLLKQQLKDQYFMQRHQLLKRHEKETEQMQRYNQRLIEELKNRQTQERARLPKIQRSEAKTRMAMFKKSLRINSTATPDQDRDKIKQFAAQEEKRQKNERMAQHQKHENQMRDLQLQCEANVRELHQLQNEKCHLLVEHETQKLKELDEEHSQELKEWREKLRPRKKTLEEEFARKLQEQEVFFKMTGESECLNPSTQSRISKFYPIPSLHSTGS

SRPK3 = SRPK3 (Homo sapiens, UniProt Q9UPE1)
Chain of SRPK3 (Q9UPE1 whole entry): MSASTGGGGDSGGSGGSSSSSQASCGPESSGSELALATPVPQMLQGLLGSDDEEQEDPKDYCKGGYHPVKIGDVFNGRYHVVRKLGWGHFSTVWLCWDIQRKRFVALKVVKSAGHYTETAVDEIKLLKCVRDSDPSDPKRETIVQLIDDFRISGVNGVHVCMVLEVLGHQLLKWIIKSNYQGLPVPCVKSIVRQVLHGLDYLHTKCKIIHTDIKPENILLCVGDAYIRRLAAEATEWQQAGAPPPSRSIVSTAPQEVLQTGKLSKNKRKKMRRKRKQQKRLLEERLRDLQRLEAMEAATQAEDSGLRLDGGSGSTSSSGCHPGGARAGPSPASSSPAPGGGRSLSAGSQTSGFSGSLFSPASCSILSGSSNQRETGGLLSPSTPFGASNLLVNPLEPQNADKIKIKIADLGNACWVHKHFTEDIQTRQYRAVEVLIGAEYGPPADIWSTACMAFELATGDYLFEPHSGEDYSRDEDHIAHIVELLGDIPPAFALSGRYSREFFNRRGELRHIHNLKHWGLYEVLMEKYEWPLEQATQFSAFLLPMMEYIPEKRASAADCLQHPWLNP

STK10 = STK10 (Homo sapiens, UniProt O94804)
Chain of STK10 (O94804 whole entry): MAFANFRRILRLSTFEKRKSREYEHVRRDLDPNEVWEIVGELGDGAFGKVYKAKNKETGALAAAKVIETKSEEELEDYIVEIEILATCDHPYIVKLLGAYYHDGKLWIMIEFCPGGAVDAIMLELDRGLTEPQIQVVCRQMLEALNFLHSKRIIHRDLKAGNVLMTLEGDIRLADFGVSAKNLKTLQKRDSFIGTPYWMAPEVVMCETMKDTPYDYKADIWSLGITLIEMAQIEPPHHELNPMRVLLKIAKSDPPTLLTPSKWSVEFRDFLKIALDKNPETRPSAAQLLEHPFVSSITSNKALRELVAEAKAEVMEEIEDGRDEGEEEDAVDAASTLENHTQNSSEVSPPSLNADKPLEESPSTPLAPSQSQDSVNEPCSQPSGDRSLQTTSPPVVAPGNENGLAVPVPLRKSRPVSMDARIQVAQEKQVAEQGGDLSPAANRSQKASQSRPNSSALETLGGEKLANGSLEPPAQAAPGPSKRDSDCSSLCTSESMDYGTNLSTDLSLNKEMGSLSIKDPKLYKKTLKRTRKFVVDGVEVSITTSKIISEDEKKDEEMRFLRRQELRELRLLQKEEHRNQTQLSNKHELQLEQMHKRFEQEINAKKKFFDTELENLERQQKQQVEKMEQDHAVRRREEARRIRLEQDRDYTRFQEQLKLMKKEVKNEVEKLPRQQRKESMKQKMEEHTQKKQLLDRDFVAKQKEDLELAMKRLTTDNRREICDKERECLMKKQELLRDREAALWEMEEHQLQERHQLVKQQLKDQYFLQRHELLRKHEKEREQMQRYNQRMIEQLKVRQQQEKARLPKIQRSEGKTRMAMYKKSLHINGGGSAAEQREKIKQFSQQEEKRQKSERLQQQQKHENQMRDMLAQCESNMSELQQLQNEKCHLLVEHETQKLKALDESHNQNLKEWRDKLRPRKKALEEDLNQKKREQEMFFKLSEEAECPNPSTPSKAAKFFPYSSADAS

STK39 = STK39 (Homo sapiens, UniProt Q9UEW8)
VRK1 = VRK1 (Homo sapiens, UniProt Q99986)
STK33 = STK33 (Homo sapiens, UniProt Q9BYT3)
Chain of STK33 (Q9BYT3 whole entry): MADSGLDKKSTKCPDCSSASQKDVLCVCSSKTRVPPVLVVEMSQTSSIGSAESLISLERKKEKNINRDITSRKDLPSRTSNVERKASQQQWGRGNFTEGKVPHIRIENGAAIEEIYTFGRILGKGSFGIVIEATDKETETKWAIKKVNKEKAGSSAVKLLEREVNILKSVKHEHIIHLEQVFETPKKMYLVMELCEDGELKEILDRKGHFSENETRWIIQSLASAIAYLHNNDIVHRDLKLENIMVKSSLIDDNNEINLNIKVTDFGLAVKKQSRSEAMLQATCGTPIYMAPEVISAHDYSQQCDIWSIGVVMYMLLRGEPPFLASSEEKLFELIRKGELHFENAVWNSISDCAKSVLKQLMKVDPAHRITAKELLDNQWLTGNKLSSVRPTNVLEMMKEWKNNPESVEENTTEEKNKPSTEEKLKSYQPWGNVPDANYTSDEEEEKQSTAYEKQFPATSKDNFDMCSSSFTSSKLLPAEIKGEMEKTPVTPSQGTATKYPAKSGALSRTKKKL

BMPR1B = BMPR1B (Homo sapiens, UniProt O00238)
CSNK1G3 = CSNK1G3 (Homo sapiens, UniProt Q9Y6M4)
TGFBR1 = TGFBR1 (Homo sapiens, UniProt P36897)
TGFBR2 = TGFBR2 (Homo sapiens, UniProt P37173)

Chain of CDK16 (Q00536 whole entry): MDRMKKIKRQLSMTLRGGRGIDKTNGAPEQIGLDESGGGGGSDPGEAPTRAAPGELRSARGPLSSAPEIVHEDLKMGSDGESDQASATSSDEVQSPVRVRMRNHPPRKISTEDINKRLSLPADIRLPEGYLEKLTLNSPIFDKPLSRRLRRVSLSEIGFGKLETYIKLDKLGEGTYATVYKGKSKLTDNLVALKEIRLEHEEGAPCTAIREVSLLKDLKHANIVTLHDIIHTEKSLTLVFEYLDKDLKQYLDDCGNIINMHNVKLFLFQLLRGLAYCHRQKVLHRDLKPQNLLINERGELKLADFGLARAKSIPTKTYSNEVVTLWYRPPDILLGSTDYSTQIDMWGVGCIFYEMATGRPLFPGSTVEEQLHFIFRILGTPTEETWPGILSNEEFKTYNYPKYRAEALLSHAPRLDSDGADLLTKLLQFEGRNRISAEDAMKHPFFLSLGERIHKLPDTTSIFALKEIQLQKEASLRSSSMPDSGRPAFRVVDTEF
Chain of LYN (P07948 whole entry): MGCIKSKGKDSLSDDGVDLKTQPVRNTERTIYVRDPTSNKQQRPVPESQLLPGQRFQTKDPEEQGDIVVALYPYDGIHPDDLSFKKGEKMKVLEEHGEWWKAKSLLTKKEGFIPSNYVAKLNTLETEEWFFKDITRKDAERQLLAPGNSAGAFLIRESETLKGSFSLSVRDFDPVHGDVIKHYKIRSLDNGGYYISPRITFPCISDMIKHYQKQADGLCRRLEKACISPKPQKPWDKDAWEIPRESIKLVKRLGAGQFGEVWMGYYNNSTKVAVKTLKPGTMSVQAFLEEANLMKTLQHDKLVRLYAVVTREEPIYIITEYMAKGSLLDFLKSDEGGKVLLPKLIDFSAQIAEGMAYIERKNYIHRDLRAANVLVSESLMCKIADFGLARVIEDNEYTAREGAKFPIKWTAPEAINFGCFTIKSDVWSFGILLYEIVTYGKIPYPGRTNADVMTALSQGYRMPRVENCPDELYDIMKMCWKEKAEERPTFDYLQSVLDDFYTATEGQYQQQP
Chain of MAPK9 (P45984 whole entry): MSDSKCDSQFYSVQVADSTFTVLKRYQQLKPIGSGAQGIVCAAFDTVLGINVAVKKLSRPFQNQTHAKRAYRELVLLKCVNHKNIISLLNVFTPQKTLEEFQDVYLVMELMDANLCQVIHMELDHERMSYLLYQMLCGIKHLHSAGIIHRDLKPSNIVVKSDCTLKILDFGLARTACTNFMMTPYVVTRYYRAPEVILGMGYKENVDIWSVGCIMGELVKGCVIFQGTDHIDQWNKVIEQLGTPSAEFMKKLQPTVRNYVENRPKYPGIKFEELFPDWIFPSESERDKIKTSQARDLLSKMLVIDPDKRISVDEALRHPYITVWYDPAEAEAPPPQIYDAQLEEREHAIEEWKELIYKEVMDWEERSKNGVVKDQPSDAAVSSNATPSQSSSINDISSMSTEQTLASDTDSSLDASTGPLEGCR
Chain of MAP2K6 (P52564 whole entry): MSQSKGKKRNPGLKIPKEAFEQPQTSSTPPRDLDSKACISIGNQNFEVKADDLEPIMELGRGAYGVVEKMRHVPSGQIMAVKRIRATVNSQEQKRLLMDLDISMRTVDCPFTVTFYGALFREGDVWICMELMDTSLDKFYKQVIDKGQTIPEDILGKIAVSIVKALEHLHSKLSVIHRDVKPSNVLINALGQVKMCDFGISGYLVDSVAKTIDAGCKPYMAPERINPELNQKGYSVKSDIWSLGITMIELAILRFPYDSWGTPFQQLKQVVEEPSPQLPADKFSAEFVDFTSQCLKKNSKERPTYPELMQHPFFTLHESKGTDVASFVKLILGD

## CCN1/C(=C/C(C)=O)Sc2ccc(OC)cc21 [compound 2, TG003]
CAMKK2
  ΔTm inhibitor 2: 0.4 °C
CDC42BPG
  ΔTm inhibitor 2: -1.3 °C
CDK16
  ΔTm inhibitor 2: -0.4 °C
LYN
  ΔTm inhibitor 2: 0.1 °C
MAP2K6
  ΔTm inhibitor 2: 0.0 °C
MAP3K5
  ΔTm inhibitor 2: 0.4 °C
MAPK11
  ΔTm inhibitor 2: 0.0 °C
MAPK3
  ΔTm inhibitor 2: -0.1 °C
MAPK9
  ΔTm inhibitor 2: 0.4 °C
MERTK
  ΔTm inhibitor 2: 0.0 °C
MYLK
  ΔTm inhibitor 2: -0.2 °C
MYLK2
  ΔTm inhibitor 2: -1.4 °C
MYLK4
  ΔTm inhibitor 2: 0.9 °C
NEK2
  ΔTm inhibitor 2: 0.8 °C
PKN2
  ΔTm inhibitor 2: -0.5 °C
PRKAA2
  ΔTm inhibitor 2: -0.1 °C
RPS6KA3
  ΔTm inhibitor 2: 0.7 °C
SLK
  ΔTm inhibitor 2: -0.5 °C
SRPK3
  ΔTm inhibitor 2: 0.0 °C
STK10
  ΔTm inhibitor 2: 0.8 °C
STK39
  ΔTm inhibitor 2: 0.5 °C
VRK1
  ΔTm inhibitor 2: 1.1 °C
STK33
  ΔTm 2: 0.6 °C

## CC(=O)c1cccc(-c2cnc3ccc(NCC4CC4)nn23)c1 [compound 1, K00135]
BMPR1B
  ΔTm inhibitor 1: 11.5 °C
CAMKK2
  ΔTm inhibitor 1: 2.5 °C
CDC42BPG
  ΔTm inhibitor 1: 0.6 °C
CDK16
  ΔTm inhibitor 1: 0.5 °C
CSNK1G3
  ΔTm inhibitor 1: 0.3 °C
LYN
  ΔTm inhibitor 1: 2.4 °C
MAP2K6
  ΔTm inhibitor 1: 1.1 °C
MAP3K5
  ΔTm inhibitor 1: 2.2 °C
MAPK11
  ΔTm inhibitor 1: 0.3 °C
MAPK3
  ΔTm inhibitor 1: 0.5 °C
MAPK9
  ΔTm inhibitor 1: 0.8 °C
MERTK
  ΔTm inhibitor 1: 1.3 °C
MYLK4
  ΔTm inhibitor 1: 5.8 °C
PKN2
  ΔTm inhibitor 1: 3.7 °C
PRKAA2
  ΔTm inhibitor 1: 1.1 °C
RPS6KA3
  ΔTm inhibitor 1: 3.4 °C
SLK
  ΔTm inhibitor 1: 2.3 °C
SRPK3
  ΔTm inhibitor 1: 0.4 °C
STK10
  ΔTm inhibitor 1: 3.3 °C
STK39
  ΔTm inhibitor 1: 0.8 °C
TGFBR1
  ΔTm inhibitor 1: 9.5 °C
TGFBR2
  ΔTm inhibitor 1: 13.7 °C
VRK1
  ΔTm inhibitor 1: 0.7 °C
STK33
  ΔTm 1: 3.1 °C

## Nc1nccc(-c2ccc3noc(-c4ccc(Cl)cc4)c3c2)n1 [compound 4, K00972]
BMPR1B
  ΔTm inhibitor 4: 0.2 °C
CDK16
  ΔTm inhibitor 4: 1.2 °C
CSNK1G3
  ΔTm inhibitor 4: 1.2 °C
LYN
  ΔTm inhibitor 4: 0.3 °C
MAPK9
  ΔTm inhibitor 4: 0.9 °C
MYLK
  ΔTm inhibitor 4: 0.1 °C
MYLK2
  ΔTm inhibitor 4: 0.0 °C
MYLK4
  ΔTm inhibitor 4: 3.9 °C
NEK2
  ΔTm inhibitor 4: 0.1 °C
SLK
  ΔTm inhibitor 4: 0.5 °C
SRPK3
  ΔTm inhibitor 4: 0.2 °C
STK10
  ΔTm inhibitor 4: 1.9 °C
STK39
  ΔTm inhibitor 4: 0.0 °C
TGFBR1
  ΔTm inhibitor 4: 0.9 °C
TGFBR2
  ΔTm inhibitor 4: 2.0 °C
STK33
  ΔTm 4: 2.4 °C
